Test results as given in the NIST ThermoML archive (doi:10.1016/j.fluid.2014.10.044).
Numbers after ± are expanded uncertainties.

Experiment: xn = mol fraction of the nth substance listed
Conditions: 298.15 K, 101 kPa, Liquid; for viscosity: Concentric cylinders viscometry; for mass density: Vibrating tube method

viscosity (x2 = 0.25): 311.21 ± 19 mPa·s
viscosity (x2 = 0.5): 803.76 ± 74 mPa·s
mass density (x2 = 0.25): 1266.5 ± 0.9 kg/m3
mass density (x2 = 0.5): 1197.6 ± 1 kg/m3
Structure (SMILES): O=C(O)CO [2-hydroxyethanoic acid] + C[N+](C)(C)CCO.[Cl-]
